From patent US6030841A, “Liver function test” (Norgine Limited, priority 1997, dated 2000)
Like-named read-outs stand apart in the source and are kept apart here.

Assays:
[1] = Standard liver function tests, electrolytes and kidney function before and after 0.5 mg/kg b.w. CLF; format: in vivo, human
Description: In five healthy volunteers, a 25-fold higher dose of CLF (0.5 mg/kg b.w.) was injected in order to further assess the appropriateness of the dose chosen and the safety of the compound. […] Table.
Tests of Liver Function Before And After CLF Dose of
0.5 mg/Kg b.w. For 5 Healthy Patients.

[2] = Plasma elimination of CLF after intravenous injection in healthy volunteers (and patients); format: in vivo, human
Description: A study was carried out in six healthy volunteers (1 female, 5 male), ages 30-53 years. Subjects were studied supine after overnight fasting. After an initial basal blood sample was taken, CLF in a dose of 0.02 mg/kg of body weight (b.w.) in physiological saline was injected intravenously during 15 seconds. Venous blood samples were collected from the opposite antecubital vein into gel and lithium heparin containers (sold under the Trade Name Vacutainers by Becton Dickinson Vacutainer Systems) at 2, 3, 4, 6, 10, 15, 20, 30, 60 and 90 minutes. The blood samples were then centrifuged and 0.5 ml aliquots of plasma were taken and added to 3.5 ml of methanol to precipitate plasma proteins, followed by further centrifugation. The supernatant (1 ml) was diluted to 3 ml with methanol and the fluorescence was then measured by spectrometer (Perkin Elmer LS5B Luminescence Spectrometer).
CLF concentration (μg/ml) was derived from a calibration curve which expressed the equation: […]
where y represents the measured fluorescence in fluorescence units at an excitation wavelength of 490 nm with emission at 520 nm and x represents the CLF concentration in μg/ml. The calibration curve was calibrated from fluorescence meaurements of solutions having known CLF concentrations followed by linear regression analysis.
Non linear plasma elimination curves presented as percentage dose administered per liter of plasma were fitted to a tri-exponential model. The half life (t1/2 time) was calculated for the first (t1/2 1st phase), second (t1/2 2nd phase) and third (t1/2 3rd phase) phases of the elimination curves from the equations: […]
where k1, k2 and k3 were calculated for each subject using the equation:
Ct =Ae^-k.sbsp.1^t +Be^-k.sbsp.2^t
Ct is the concentration of CLF at time t, A, B and C are the intercepts of each phase of elimination at t=0 k1, k2 and k3 are fractional disappearance rates of the three phases of elimination.

[3] = Horak et al., cited from earlier work
[4] = radiolabelled, bi-exponential model, Cowen et al.; cited from earlier work
[5] = after CLF 0.5 mg/kg b.w., only one value given
[6] = CLF 0.02 mg/kg b.w. i.v., healthy volunteers, plasma, tri-exponential model

CC(CCC(=O)NC(CCCCNC(=S)Nc1ccc(-c2c3ccc(=O)cc-3oc3cc(O)ccc23)c(C(=O)O)c1)C(=O)O)C1CCC2C3C(O)CC4CC(O)CCC4(C)C3CC(O)C12C (stereo not shown) [CLF, cholyl-lysyl-fluorescein]
Serum biochemistry including basic liver function tests, electrolytes and kidney function ([1]; 0.5 mg/kg b.w. i.v., five healthy volunteers): did not change significantly
plasma alkaline phosphatase levels post injection ([1]; 0.5 mg/kg b.w. i.v., healthy volunteers, not statistically significant): consistent diminution
bilirubin after CLF injection ([1]; after CLF 0.5 mg/kg b.w., before: 10): 11 μM/L
AST (aspartate aminotransferase) after CLF injection ([1]; after CLF 0.5 mg/kg b.w., before: 17): 16 U/L
Creatinine after CLF injection ([1]; after CLF 0.5 mg/kg b.w., before: 94): 89 μM/L
AlkP (alkaline phosphatase) after CLF injection ([1]; after CLF 0.5 mg/kg b.w., before: 148): 134 U/L
Albumin after CLF injection [1, 5]: 42 g/L
Urea after CLF injection [1, 5]: 4.3 mM/L
efficiency of hepatic clearance (elimination curves at 25-fold increased dose) ([2]; 0.5 mg/kg b.w. i.v. versus 0.02 mg/kg, healthy volunteers): efficiency of hepatic clearance is unchanged
percentage of fluorescence after 60 min (fluorescence at 60 min compared with 10 min) ([2]; 60 min vs 10 min, plasma, healthy volunteers): 13.1±1.6%
Plasma retention at 90 minutes, percentage of the dose administered per liter of plasma ([2]; 90 minutes, i.v., healthy volunteers): 2.2%
t1/2 1st phase of elimination [2, 6]: 1.7 ± 0.9 min
t1/2 2nd phase of elimination [2, 6]: 6.7 ± 1.6 min
t1/2 3rd phase of elimination [2, 6]: 68 ± 17 min
CLF plasma elimination compared with natural bile acids ([2]; body of data, comparison with natural bile acids): very similar to the elimination of natural bile acids
volume of distribution ([2]; calculated as proposed by Thiordleifsson et al., 0.02 mg/kg): 2214 ± 147 mL
CLF elimination curves of FIG. 2 ([2]; healthy patients versus patients with fatty, cirrhotic and recently transplanted livers (5 days post operation)): differing rates of CLF elimination

C[C@H](CCC(=O)O)[C@H]1CC[C@H]2[C@@H]3[C@H](O)C[C@@H]4C[C@H](O)CC[C@]4(C)[C@H]3C[C@H](O)[C@]12C [cholic acid]
60 min plasma retention ([3]; FHF patients who survived): 60%
60 min plasma retention ([3]; healthy volunteers, 60 min compared with 10 min): 8±1%
60 min plasma retention ([3]; patients with fulminant hepatic failure (FHF) who subsequently died): 71%

C[C@H](CCC(=O)NCC(=O)O)[C@H]1CC[C@H]2[C@@H]3[C@H](O)C[C@@H]4C[C@H](O)CC[C@]4(C)[C@H]3C[C@H](O)[C@]12C [cholyl glycine]
t1/2 first exponential [4]: 1.7 ± 0.1 min
t1/2 second exponential [4]: 7 ± 0.1 min
